For data set [1], the target named is T1, CoxD (Afipia carboxidovorans, UniProt Q51326).
T1 construct: mainly hexamer, also dimer and tetramer (homo-oligomer)
T1 sequence (Q51326 1-295): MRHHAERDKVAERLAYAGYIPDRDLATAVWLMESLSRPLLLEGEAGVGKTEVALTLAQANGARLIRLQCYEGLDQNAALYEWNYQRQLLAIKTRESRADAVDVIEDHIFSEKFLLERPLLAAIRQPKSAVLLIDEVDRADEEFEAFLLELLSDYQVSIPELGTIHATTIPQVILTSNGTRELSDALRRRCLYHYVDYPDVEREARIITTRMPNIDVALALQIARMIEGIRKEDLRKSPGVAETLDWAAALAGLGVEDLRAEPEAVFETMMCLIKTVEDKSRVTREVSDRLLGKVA
Kind of data set: inhibition of ATP hydrolysis, ADP release. It is filed as biochemical. Particulars: 100 mM Tris/acetate pH 8.0, 1 mM Mg-acetate, 25 °C; refolded enzyme; 1 mM ATP; competes with ATP; slowly hydrolysable analogue.

The target in data set [2] is T1, CoxD. Kind of data set: GTP hydrolysis, inorganic phosphate release. It is filed as biochemical. The conditions noted are these: 100 mM Tris/acetate pH 8.0, 1 mM Na2GTP, 1 mM Mg-acetate, 25 °C; weak side activity.
Substrate in the data set “purified protein”: Nc1ncnc2c1ncn2[C@@H]1O[C@H](COP(=O)(O)OP(=O)(O)OP(=O)(O)O)[C@@H](O)[C@H]1O
Kind of data set: purified protein. The conditions noted are these: 100 mM Tris/acetate pH 8.0, 1 mM Mg-acetate, 25 °C, refolded enzyme.

Take `Nc1ncnc2c1ncn2[C@@H]1O[C@H](COP(=O)(O)OP(=O)(O)OP(O)(O)=S)[C@@H](O)[C@H]1O` [ATP-γ-S]: the “inhibition of ATP hydrolysis (qualitative)” value on CoxD [1] is recorded as “It very effectively competed with ATP for CoxD”.

Take `Nc1nc2c(ncn2[C@@H]2O[C@H](COP(=O)(O)OP(=O)(O)OP(=O)(O)O)[C@@H](O)[C@H]2O)c(=O)[nH]1` [GTP]: the “GTP hydrolysis, inorganic phosphate release” value at CoxD [2] was “formed from GTP”.

B1: CoxD (Afipia carboxidovorans OM5) (protein)
chain: T1 sequence (Q51326 1-295)
Usually Km stands for the substrate concentration at which the rate is half of its maximum. As to B1, the Km in “purified protein” is 690 ± 140 µM.

(Values after article PMC3471820, “The CoxD Protein, a Novel AAA+ ATPase Involved in Metal Cluster Assembly: Hydrolysis of Nucleotide-Triphosphates and Oligomerization” (PLoS ONE, 2012).)
